# Legend:
# [1] = test system: soybean varieties; assay: Metribuzin sensitivity or tolerance phenotype of soybean varieties (Table S-3); type: in vivo, Glycine max
# Source text: To observe the presence or absence of the “metribuzin sensitivity” or metribuzin tolerance phenotypes, soybean plants are typically exposed in early to mid-vegetative growth stages to one or more doses of metribuzin. Typical doses of metribuzin that can elicit a metribuzin sensitivity phenotype can range from about a 1-fold label application rate of a commercially available metribuzin formulation (i.e. about 0.25 pounds per acre) to about a 3-fold label application rate (i.e. about 0.75 pounds per acre) of a commercially available metribuzin formulation. Commercially available formulations containing metribuzin that can be used include, but are not limited to, Authority®MTZ (FMC Corporation, Philadelphia, Pa., USA); Boundary (Syngenta, Wilmington, Del., USA); Canopy® or Lexone® (Dupont, Wilmington, Del., USA); Sencor® (Bayer Crop Science, Research Triangle Park, N.C., USA); or TriCor® DF (United Phosphorus, Inc., King of Prussia, Pa., USA. In certain embodiments, the commercially available metribuzin formulation used is TriCor® 75DF. In certain embodiments, doses of metribuzin that can elicit a metribuzin sensitivity phenotype can range from about a 1 fold application rate of about 0.25 pounds per acre to about a three fold application rate of 0.75 pounds per acre.
# The metribuzin sensitivity phenotype can be observed approximately one week to three weeks after herbicide application in certain soybean varieties that are sensitive to metribuzin. Metribuzin is typically applied during pre and post-emergent vegetative growth stages. In certain embodiments of these methods, metribuzin can be applied to the soil about 2 days prior to soybean seed planting and activated by irrigation of the planted seed to score for the presence of the metribuzin sensitivity phenotype. Genotypes provided herein are especially useful for providing metribuzin tolerance to plants exposed to metribuzin by a pre-emergence soil drench. As discussed herein, the vegetative stages of soybean are as follows: VE (emergence), VC (cotyledon stage), V1 (first trifoliate leaf), V2 (second trifoliate leaf), V3 (third trifoliate leaf), V(n) (nth trifoliate leaf), and V6 (flowering will soon start). As discussed herein, the reproductive stages of soybean are as follows: R1 (beginning bloom), R2 (full bloom), R3 (beginning pod), R4 (full pod), R5 (beginning seed), R6 (full seed), R7 (beginning maturity) and R8 (full maturity). A description of the soybean vegetative and reproductive stages can be found on the World Wide Web (internet) at ag.ndsu.edu/pubs/plantsci/rowcrops/a1174/a1174w.htm (North Dakota State University publication A-1174, June 1999, Reviewed and Reprinted August 2004).
# A rating scale that evaluates the degree of metribuzin sensitivity can also be employed to identify “metribuzin sensitive” and “metribuzin tolerant” plants. An exemplary and non-limiting scale for evaluating the Metribuzin sensitivity phenotype is as follows, where a low number corresponds to a “metribuzin tolerance” phenotype and the a high number correlates to a “metribuzin sensitivity” phenotype:
# A non-limiting and exemplary list of soybean plants that comprise genomic regions associated with either a metribuzin sensitivity or a metribuzin tolerance phenotype are provided herewith in Table S-3.
# [2] = test system: soybeans; assay: Field screening for metribuzin tolerance in soybeans (Example 11, 13); type: in vivo, Glycine max; conditions: soybean lines containing a heterozygous (CT) allele of NGMAX006079502
# Procedure: Field screening for metribuzin tolerance in soybeans was performed at the Monsanto Company Soybean Research Station near Mount Olive, N.C. in 2010 and 2011. Metribuzin application rate was 0.5 lbs/acre metribuzin (Sencor®, Bayer Crop Science, Research Triangle Park, N.C., U.S.A.) one day prior to planting. Rows were planted as single six foot row plots with 9 seed per foot. Multiple repetitions were grown per row. Within 24 hours after planting, the trial was irrigated with 0.5 inches of water to help incorporate and activate the herbicide. Injury ratings were taken fourteen to twenty one (14 to 21) days after planting using a 1 to 9 scale (for example, 1=no damage, 9=completely killed). After identifying the target region through the mapping population described in Example 12, a molecular marker was identified. An association study was done using a soybean molecular marker database. Over 200 commercial and breeding lines were characterized for metribuzin tolerance in field and greenhouse screening, as described in Example 11.
smiles,measurement,setting,value
"CSc1nnc(C(C)(C)C)c(=O)n1N [Metribuzin, 4-amino-6-(1,1-dimethylethyl)-3-(methylthio)-1,2,4-triazin-5(4H)-one]",METRIBUZIN PHENOTYPE,[1]; soybean variety AG4531,Tolerant
same,METRIBUZIN PHENOTYPE,[1]; soybean variety AG4730,Tolerant
same,METRIBUZIN PHENOTYPE,[1]; soybean variety AG6130,Sensitive
same,METRIBUZIN PHENOTYPE,[1]; soybean variety AG6730,Sensitive
same,METRIBUZIN PHENOTYPE,[1]; soybean variety AG6931,Tolerant
same,METRIBUZIN PHENOTYPE,[1]; soybean variety BURLISON (from TRACY),Sensitive
same,METRIBUZIN PHENOTYPE,[1]; soybean variety DASSEL (from PAGODA),Sensitive
same,METRIBUZIN PHENOTYPE,[1]; soybean variety H7550,Sensitive
same,METRIBUZIN PHENOTYPE,[1]; soybean variety PAGODA,Sensitive
same,METRIBUZIN PHENOTYPE,[1]; soybean variety TRACY,Sensitive
same,METRIBUZIN PHENOTYPE,[1]; soybean variety Tracy-M,Tolerant
same,metribuzin phenotype in the field,[2],mixed phenotype of both tolerance and sensitivity
